This note sets out measurements from patent US20230139328A1, “DOSAGE FORMS FOR IMPROVING ORGAN TRANSPLANTATION, GRAFT VERSUS HOST DISEASE AND STEM CELLS TRANSPLANTS” (Aphios Corporation, priority 2020, published 2023).

“Also recorded” adds a separate entry of the source.

Data set [1] deals with PKC-ε siRNA nucleofected HUVEC. The experiment in a line: LTB4 mediated neutrophil migration across PKC-ε siRNA nucleofected HUVEC. Format: cell-based, human. The settings on record: 1 h pretreatment; PKC-ε knockdown. The text has this:
Because studies in FIG. 8 could not discriminate between PKC-δ and […] isoforms mediating the effect of Bryostatin-1, we knocked down individual isoforms using siRNA technology. In order to verify that we could knock down particular isoforms of PKC, specifically PKC-8 and PKC-ε isoforms in HUVEC, siRNA which selectively bind to and eliminate human PKC-8 and PKC-ε mRNAs were nucleofected into HUVEC prior to migration studies. […] HUVEC cells treated using these approaches were then subjected to chemotaxis studies with Bryostatin-1 to elucidate the mechanism of Bryostatin-1 mediated inhibition of LTB4 induced PMN migration.
Neutrophil Transendothelial Migration (TEM) Restoration Studies: HUVECs were pretreated with Go-6983 (1, 10, 100 nM), or Go-6976 (1, 10,100 nM) for 30 minutes, then spiked with 100 nM Bryostatin-1 for 1 hour. […] Migration was stopped by removing the inserts and migration was measured using the MPO assay.
Myeloperoxidase Assay: Neutrophil migration was measured using myeloperoxidase (MPO) analysis. […] The supernatant was removed, and MPO activity was measured using TMB/peroxide as chromogen. The reaction was stopped with sulfuric acid and absorbance was read at 450 nm using a microplate reader. […] Data was expressed as “% neutrophil migration”, which allowed cumulative statistical analysis to be done and account for unpreventable batch-to-batch variations. […]

The test system of data set [2] is HMEC. The experiment in a line: Alamar blue endothelial viability assay, HMEC. Format: cell-based, human. The settings on record: single 1 h 100 nM treatment; 1, 24, 48 h. As to the method:
Viability Assay. The Alamar blue assay was used to determine endothelial viability after pharmacological intervention. Alamar blue contains a REDOX indicator that results in a color change upon chemical reduction by cellular metabolic activity. Endothelial cells were treated with Bryostatin-1 (100 nM) for 1 h and washed three times with HBSS. Alamar blue (10%) in media was added for 2.5 h at T=0, 24, or 48 hours after drug treatment and the ratio of absorbances (570-600 nm) was measured to determine metabolic activity.

Turning to `CCC/C=C/C=C/C(=O)O[C@H]1/C(=C/C(=O)OC)C[C@H]2C[C@H]([C@@H](C)O)OC(=O)C[C@H](O)C[C@@H]3C[C@H](OC(C)=O)C(C)(C)[C@](O)(C[C@@H]4C/C(=C/C(=O)OC)C[C@H](/C=C/C(C)(C)[C@]1(O)O2)O4)O3` [Bryostatin-1], the “effect on LTB4 mediated neutrophil migration in PKC-ε siRNA nucleofected HUVEC” value in data set [1] is given as “did not restore LTB4 induced migration; also recorded: still suppresses migration”. Besides, the HMEC viability entry in data set [2] was “no effect”.

For the compound `CCCCCCCCCCCCCC(=O)O[C@@H]1[C@@H](C)[C@@]2(O)[C@@H](C=C(CO)C[C@]3(O)C(=O)C(C)=C[C@@H]23)[C@@H]2C(C)(C)[C@]12OC(C)=O` [PMA, phorbol myristate acetate], in data set [1], the “effect on LTB4 mediated neutrophil migration in PKC-ε siRNA nucleofected HUVEC” value is given as “did not restore LTB4 induced migration”. Also, the HMEC viability result in data set [2] is “no effect”.
